Measurements published in patent publication US20250249102A1, “CMV-HIV SPECIFIC CHIMERIC ANTIGEN RECEPTOR T CELLS” (priority 2022, published 2025).
Where two headings read alike, the source gives them in different places.

What was measured:
HIV-1 BaL or HIV-1 NL4-3 [1] = assay: microbe, parasite or virus in culture; settings: Human immunodeficiency virus 1, PBMC
HIV-1 BaL or HIV-1 NL4-3 [2] = settings: for HIV replication: CD8+-depleted PBMCs infected with HIV-1 BaL or HIV-1 NL4-3

| Molecule | EC50 (HIV-1 BaL or HIV-1 NL4-3 [1]) [nM] | HIV replication (HIV-1 BaL or HIV-1 NL4-3 [2]) | EC50 (HIV-1 BaL or HIV-1 NL4-3 [2]) [nM] |
| --- | --- | --- | --- |
| CC(C)CN(C[C@@H](O)[C@H](Cc1ccccc1)NC(=O)O[C@H]1CO[C@H]2OCC[C@H]21)S(=O)(=O)c1ccc(N)cc1 [darunavir] | 4.3 | prevent HIV replication | – |
| enfuvirtide | – | prevent HIV replication | 27.9 |
